Measurements taken from article PMC6915869, “Immunosuppressive effects of a novel potassium channel toxin Ktx-Sp2 from Scorpiops Pocoki” (Cell & Bioscience, 2019).

Test system: Ca^2+ influx in Jurkat T cells
Experiment: Live cell Ca^2+ imaging (Fura-2) in Jurkat T cells
Type: cell-based, human
Conditions: 10 μM CPA, absence of extracellular Ca^2+, Fura-2
Method: Jurkat T cells were loaded with 4 μM Fura-2 AM (Life Technologies) for 60 min at 37 °C. Cells were then washed 3 times and incubated in Hank’s Balanced Salt Solution (HBSS) for 30 min at room temperature before use. Fluorescence at 340 nm and 380 nm excitation wavelengths was recorded on an inverted Nikon Ti-E microscope equipped with 340, 360 and 380 nm excitation filter wheels using NIS-Elements imaging software (Nikon Instruments Inc., Melville, NY, USA). Fura-2 ratios (F340/F380) reflect changes in [Ca^2+]i upon stimulation. Data were obtained from 100 to 250 cells in time-lapse images from each coverslip.
To test this hypothesis we performed live cell Ca^2+ imaging using the Ca^2+ indicator dye Fura-2 to determine the effect of Ktx-Sp2 on [Ca^2+]i in the presence of intracellular Ca^2+ store depletion by cyclopiazonic acid (CPA), an inhibitor of the sarcoplasmic reticulum Ca^2+-ATPase. […] When 2 mM Ca^2+ was added to the Ca^2+-free HBSS, we observed a large Ca^2+ influx into the cells. […] At 10 μM, Ktx-Sp2 decreased the F340/F380 ratio from 0.14 ± 0.02 to 0.05 ± 0.01 (n = 278) (Fig. 5b).

## CC(=O)C1=C(O)[C@@H]2[C@H]3c4c[nH]c5cccc(c45)C[C@H]3C(C)(C)N2C1=O [CPA, cyclopiazonic acid, reference compound]
  rise of [Ca^2+]i induced by CPA: relative small, transient rise of [Ca^2+]i
